Results from patent US7361686B2, “Compounds for the treatment of metabolic disorders” (Wellstat Therapeutics Corporation, priority 2003, dated 2008).

Test system: db/db mice
Experiment: Antidiabetic effects in db/db mice (serum chemistry after 4 weeks of daily oral dosing)
Type: in vivo
Settings: for blood glucose, effect in words: versus vehicle; for Triglycerides ± SEM (serum) / Glucose ± SEM (serum glucose) / Free Fatty Acids ± SEM (serum): male obese db/db mice, 100 mg/kg daily oral, treatment for 4 weeks, mean ± SEM; for Triglycerides ± SEM (serum): vehicle 621 ± 54, lean 96.4 ± 6.4; for Glucose ± SEM (serum glucose): vehicle 747 ± 19, lean control 193 ± 11; for Free Fatty Acids ± SEM (serum): vehicle 2415 ± 134, lean 1637 ± 105
Source text: Db/db mice have a defect in leptin signaling, leading to hyperphagia, obesity and diabetes. Moreover, unlike ob/ob mice on a C57BL/6J background, db/db mice on a C57BLKS background undergo failure of their insulin-producing pancreatic islet cells, resulting in progression from hyperinsulinemia (associated with peripheral insulin resistance) to hypoinsulinemic diabetes.
Male obese (db/db homozygote) C57B/Ksola mice approximately 8 weeks of age, were obtained from Jackson Labs (Bar Harbor, Me.) and randomly assigned into groups of 5-7 animals such that the body weights (40-45 g) and serum glucose levels (≧300 mg/dl in fed state) were similar between groups; male lean (db/+heterozygote) mice served as cohort controls. A minimum of 7 days was allowed for adaptation after arrival. All animals were maintained under controlled temperature (23° C.), relative humidity (50±5%) and light (7:00-19:00), and allowed free access to standard chow (Formulab Diet 5008, Quality Lab Products, Elkridge, Md.) and water.
Treatment cohorts were given daily oral doses of vehicle, compound CO (100 mg/kg), or Compound CP (100 mg/kg) for 4 weeks. At the end of the treatment period 100 μl of venous blood was withdrawn in a heparinized capillary tube from the retro-orbital sinus for serum chemistry analysis.

[1] = db/db mice, after 4 weeks of daily oral dosing, 100 mg/kg
[2] = db/db mice, after 4 weeks of daily oral dosing, 100 mg/kg, versus vehicle-treated db/db mice

Row | Compound | blood glucose, effect in words [1] | serum free fatty acids, effect in words [2] | serum triglycerides, effect in words [2] | Triglycerides ± SEM (serum) [mg/dL] | Glucose ± SEM (serum glucose) [mg/dL] | Free Fatty Acids ± SEM (serum) [µM]
1 | CCOC(=O)CCC/C=C/c1cccc(OCc2c(C)cccc2C)c1 [Cpd. CP, 6-[3-(2,6-Dimethylbenzyloxy)-phenyl]-hex-5-enoic acid ethyl ester] | significant reduction | reduced | reduced | 150 ± 34 | 404 ± 101 | 1765 ± 39
2 | CCOC(=O)CC/C=C/c1cccc(OCc2c(C)cccc2C)c1 [Cpd. CO, 5-[3-(2,6-Dimethylbenzyloxy)-phenyl]-pent-4-enoic acid ethyl ester] | significant reduction | – | reduced | 320 ± 30 | 651 ± 36 | 2689 ± 70
